Laboratory results as given in patent US6342501B1, “Pyrrolo[2,3-d] pyrimidines as antiviral agents” (The Regents of the University of Michigan, priority 1994, dated 2002).
Read-outs that look alike come from different tables or passages of the source.

What was measured:
[1] = system: human foreskin fibroblasts (HFF cells); assay: Cytotoxicity in stationary HFF cells (microscopic inspection of plaque assay cells); assay type: cell-based; details: read-out: HFF
Experimental: (§1) Two different assays were used to explore cytotoxicity of selected compounds: (i) Cytotoxicity produced in stationary HFF cells was determined by microscopic inspection of cells used in plaque assays which were not affected by the virus [Turk, S. R., et al, Antimicrob.
(§2) Dose-response relationships were constructed by linearly regressing the percent inhibition of parameters derived in the preceding sections against logarithm 10 drug concentrations. […] Samples containing positive controls (acyclovir for HSV-1 and ganciclovir for HCMV) were used in all assays.

[2] = system: herpes simplex virus type 1 (HSV-1); assay: HSV-1 ELISA in BSC-1 cells; assay type: cell-based, KOS strain; details: read-out: HSV-1
Experimental: (§3) The routine growth and passage of KB and BSC-1 cells was performed in monolayer cultures using minimal essential medium (MEM) with either Hanks salts [MEM(H)] or Earle salts [MEM(E)] supplemented with 10% calf serum. The sodium bicarbonate concentration was varied to meet the buffering capacity required. Cultures of diploid human foreskin fibroblast (HFF) or MRC-5 cells were grown in medium consisting of MEM(E) with 10% fetal bovine serum. Cells were passaged at 1:2 to 1:10 dilutions according to conventional procedures by using 0.05% trypsin plus 0.02% EDTA in a HEPES buffered salt solution (HBS) [Shipman, C., Jr., Proc. Soc. […] HFF and MRC-5 cells were passaged only at 1:2 dilutions. The Towne strain, plaque-purified isolate Po, of HCMV was kindly provided by Dr. Mark Stinski, University of Iowa. The KOS strain of HSV-1 was used in most experiments and was provided by Dr. Sandra K. Weller, University of Conn.
High titer HSV-1 stocks were prepared by infecting BSC cells at an m.o.i. of <0.1 as detailed previously [Turk, S. R., et al., Antimicrob.
Ninety-six-well cluster dishes were planted with 10,000 BSC-1 cells per well in 200 μL per well of MEM(E) plus 10% calf serum. After overnight incubation at 37° C., selected drug concentrations in quadruplicate and HSV-1 at a concentration of 100 p.f.u./well were added. Following a 3-day incubation at 37° C., medium was removed, plates were blocked, rinsed, and horse radish peroxidase conjugated rabbit anti-HSV-1 antibody was added. Following removal of the antibody containing solution, plates were rinsed, and then developed by adding 150 μL per well of a solution of tetramethylbenzidine as substrate. The reaction was stopped with H2SO4 and absorbance was read at 450 and 570 nm. Drug effects were calculated as a percentage of the reduction in absorbance in the presence of each drug concentration compared to absorbance obtained with virus in the absence of drug.
as §2

[3] = system: human cytomegalovirus (HCMV); assay: microbe, parasite or virus in culture; assay type: cell-based, Towne strain; details: for IC50: Human betaherpesvirus 5, HFF, read-out: HCMV; for antiviral activity against HCMV (in words): comment on Table 1 data
Experimental: as §3
Stock HCMV was prepared by infecting HFF cells at a multiplicity of infection (m.o.i.) of <0.01 plaque-forming units (p.f.u.) per cell. Cell growth medium was changed every four days until cytopathology was evident in all cells (approximately 21 days). Supernatant fluids were retained as the virus stock.
Virus titers were determined using monolayer cultures of HFF cells for HCMV and monolayer cultures of BSC-1 cells for HSV-1 as described earlier [Prichard, M. N., et al., J. Virol. […] Briefly, HFF or BSC-1 cells were planted as described above in 96-well cluster dishes and incubated overnight at 37. degree. C. in a humidified 3% C02 -97% air atmosphere. The next day cultures were inoculated with HCMV or HSV-1 and serially diluted 1:3 across the remaining eleven columns of the 96-well plate. Cultures were incubated at 37. degree. C. for 2 hr to permit virus adsorption and then virus inoculum was replaced with 0.2 ml of fresh medium. Cultures were incubated for seven days for HCMV, two or three days for HSV-1, the medium was removed, and the cell sheets were stained with 0.1% crystal violet in 20% methanol.
HFF cells in 24-well cluster dishes were infected with approximately 100 p.f.u. of HCMV per cm^2 cell sheet using the procedures detailed above. Following virus adsorption, compounds dissolved in growth medium were added to duplicate wells in four to eight selected concentrations. After incubation at 37° C. for 7 to 10 days, cell sheets were fixed, stained with crystal violet and microscopic plaques enumerated as described above.
After virus adsorption, inoculum was replaced with 0.2 mL of fresh medium containing test compounds. The first row of 12 wells was left undisturbed and served as virus controls. Each well in the second row received an additional 0.1 mL of medium with test compound at three times the desired final concentration. The contents of the 12 wells were mixed by repeated pipetting and then serially diluted 1:3 along the remaining wells. In this manner, six compounds could be tested in duplicate on a single plate with concentrations from […]. Plates were incubated at 37° C. for seven days, subjected to one cycle of freezing and thawing; aliquots from each of the eight wells of a given column were transferred to the first column of a fresh 96-well monolayer culture of HFF cells. Contents were mixed and serially diluted 1:3 across the remaining eleven columns of the secondary plate. Each column of the original primary plate was diluted across a separate plate in this manner. Cultures were incubated, plaques were enumerated, and titers calculated as described above.
as §2

KB cells = assay: Cytotoxicity: KB cell growth (crystal violet staining); assay type: cell-based; details: Homo sapiens, read-out: KBgrv
Experimental: as §1
Briefly, 96-well cluster dishes were planted with KB cells at 3000-5000 cells per well. After overnight incubation at 37° C., test compound was added in quadruplicate at six to eight concentrations. Plates were incubated at 37° C for 48 hours in a CO2 incubator, rinsed, fixed with 95% ethanol, and stained with 0.1% crystal violet. Acidified ethanol was added and plates read at 570 nm in a spectrophotometer designed to read 96-well ELISA assay plates.
as §2

HSV-1 = details: prior studies; mechanism other than inhibition of DNA synthesis, early in replication cycle; cited from earlier work
HCMV = details: prior studies; mechanism other than inhibition of DNA synthesis, early in replication cycle; cited from earlier work
[4] = Human alphaherpesvirus 1, BSC-1, 72 h
[5] = Table 1, cytotoxicity, stationary HFF cells, visual
[6] = Human alphaherpesvirus 1, 72 h, Table 1, fifty-percent inhibitory concentration, ELISA, BSC-1 cells, 3-day incubation
[7] = Table 1, cytotoxicity, KB cell growth, 48 hours

Row | SMILES | melting point | IC50 ([1]; HFF) [µM] | IC50 [2, 4] [µM] | IC50 [3] [µM] | antiviral activity against HCMV (in words) [3] | IC50 (KB cells; KB, 48 h) [µM] | IC50 [1, 5] [µM] | IC50 [2, 6] [µM] | IC50 (KB cells; [7]) [µM] | inhibition of HSV-1 viral replication (in words) (HSV-1) | inhibition of HCMV viral replication (in words) (HCMV)
1 | N#Cn1c(Br)c(CCc2ccc(Cl)cc2)c2ncnc(N)c21 [Compound 6f, 4-Amino-6-Bromo-5-cyano-7-(4-chlorophenethyl)pyrrolo[2,3]pyrimidine] | 280 °C (dec.) |  |  |  |  |  |  |  |  |  | 
2 | CC(c1ccccc1)n1cc(C(N)=O)c2c(N)ncnc21 (centres unmarked) [Compound 1428, 4-amino-7-((2-phenyl)-eth-2-yl)-pyrrolo[2,3-d]pyrimidine-5-carboxamide] |  | 45 | 50 | 38 | good to excellent antiviral activity | 20 |  |  |  |  | 
3 | N#Cc1cn(Cc2ccc(F)cc2)c2ncnc(N)c12 [Compound 1429, 4-amino-7-(4-fluorobenzyl)-pyrrolo[2,3-d]pyrimidine-5-carbonitrile] |  |  |  | 1.8 | good to excellent antiviral activity |  | > 100 | 33 | 60 |  | 
4 | Cc1ccc(Cn2c(Br)c(C#N)c3c(=O)[nH]cnc32)cc1 [Compound 1441, 4-oxo-6-bromo-7-(4-methylbenzyl)-pyrrolo[2,3-d]pyrimidine-5-carbonitrile] |  |  |  | 21 |  |  | 100 | 90 | 16 |  | 
5 | NC(=O)c1c(Br)n(Cc2ccc(Cl)cc2)c2ncnc(N)c12 [Compound 1443, 4-amino-6-bromo-7-(4-chlorobenzyl)-pyrrolo[2,3-d]pyrimidine-5-carboxamide] |  | > 10 | > 100 | > 10 |  | > 100 |  |  |  |  | 
6 | N#Cc1cn(Cc2ccc(Cl)cc2)c2ncnc(N)c12 [Compound 1444, 4-amino-7-(4-chlorobenzyl)-pyrrolo[2,3-d]pyrimidine-5-carbonitrile] |  |  |  | 0.8 | good to excellent antiviral activity |  | > 10 | 85 | > 100 |  | 
7 | NC(=S)c1cn(CCc2ccccc2)c2ncnc(N)c12 [Compound 1446, 4-amino-7-(2-phenyl)ethyl-pyrrolo[2,3-d]pyrimidine-5-thiocarboxamide] |  |  |  | > 1 | excellent activity |  | 100 | 0.65 | 10 |  | 
8 | N#Cc1c(N)n(Cc2cccc(N)c2)c2ncnc(N)c12 [Compound 1455, 4,6-diamino-7-(3-aminobenzyl)-pyrrolo[2,3-d]pyrimidine-5-carbonitrile] |  |  |  | 6.5 | Some activity |  | > 100 | > 100 | 40 |  | 
9 | N#Cc1c(Br)n(Cc2cccc(Cl)c2)c2ncnc(N)c12 [Compound 1461, 4-amino-6-bromo-7-(3-chlorobenzyl)-pyrrolo[2,3-d]pyrimidine-5-carbonitrile] |  |  |  | > 100 |  |  | > 100 | > 100 | > 100 |  | 
10 | N#Cc1c(Br)n(Cc2ccc(Cl)c(Cl)c2)c2ncnc(N)c12 [Compound 1462, 4-amino-6-bromo-7-(3,4-dichlorobenzyl)-pyrrolo[2,3-d]pyrimidine-5-carbonitrile] |  |  |  | > 100 |  |  | > 100 | > 100 | > 100 |  | 
11 | COCCOCn1cc(C(N)=S)c2c(N)ncnc21 [compound 5b, 4-amino-7-[(2-methoxyethoxy)methyl]pyrrolo[2,3-d]pyrimidine-5-thiocarboxamide] |  |  |  |  |  |  |  |  |  | inhibited | inhibited
